This passage reports IC50 results from patent publication US9242996B2 (Novartis AG, priority 2013, dated 2016).

pIC50: −log10 of the molar value.

activated ERK2, sequence (P28482 whole entry): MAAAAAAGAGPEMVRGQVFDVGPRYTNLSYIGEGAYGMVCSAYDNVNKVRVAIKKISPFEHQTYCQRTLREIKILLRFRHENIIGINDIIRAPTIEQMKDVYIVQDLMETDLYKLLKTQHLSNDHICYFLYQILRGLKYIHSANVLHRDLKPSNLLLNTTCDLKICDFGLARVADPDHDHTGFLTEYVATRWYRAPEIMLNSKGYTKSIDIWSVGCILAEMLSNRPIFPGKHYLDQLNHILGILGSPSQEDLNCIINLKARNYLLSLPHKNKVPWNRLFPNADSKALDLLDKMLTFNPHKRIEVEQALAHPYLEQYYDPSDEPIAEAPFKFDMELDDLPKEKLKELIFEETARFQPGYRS

The test deals with activated ERK2 (Homo sapiens (Human), UniProt P28482). Put plainly: Activated ERK2 kinase assay, ERK2 New conditions (AlphaScreen, ERKtide phosphorylation). The class given is biochemical. The note with it: 0.25 nM ERK2, 200 nM ERKtide peptide, 35 μM ATP, 30 min preincubation. In a few lines:
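Read-out is AlphaScreen with anti-phospho-EGFR (Thr669) antibody after EDTA quench and overnight dark incubation. Reaction: 0.25 nM ERK2, 30 min compound preincubation, then 200 nM ERKtide plus 35 µM ATP for 2–3 h at ambient temperature, pH 7.5. IC50 by four-parameter fit.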
`Nc1ncc([C@H]2CNC(=O)C2)cc1-c1ccc(C(=O)N[C@H](CO)c2ccccc2)c(F)c1` [Example 220, 4-(2-amino-5-((S)-5-oxopyrrolidin-3-yl)pyridin-3-yl)-2-fluoro-N—((S)-2-hydroxy-1-phenylethyl)benzamide] gave a pIC50 of 7.14.

In the case of `COC(=O)[C@@H]1C[C@H](c2cnc(N)c(-c3ccc(C(=O)N[C@H](CO)c4cccc(Cl)c4)c(F)c3)c2)CN1` [Example 221, (2S,4R)-methyl 4-(6-amino-5-(4-(((S)-1-(3-chlorophenyl)-2-hydroxyethyl)carbamoyl)-3-fluorophenyl)pyridin-3-yl)pyrrolidine-2-carboxylate], the pIC50 was 7.51.

The compound `Nc1ncc([C@@H]2CN[C@H](C(=O)O)C2)cc1-c1ccc(C(=O)N[C@H](CO)c2cccc(Cl)c2)c(F)c1` [Example 222, (2S,4R)-4-(6-amino-5-(4-(((S)-1-(3-chlorophenyl)-2-hydroxyethyl)carbamoyl)-3-fluorophenyl)pyridin-3-yl)pyrrolidine-2-carboxylic acid] had a pIC50 of 7.61.

In the case of `COC(=O)[C@@H]1C[C@H](c2cnc(N)c(-c3ccc(C(=O)N[C@H](CO)c4cccc(Cl)c4)c(F)c3)c2)CN1` [Example 223, (2S,4R)-methyl 4-(6-amino-5-(4-(((S)-1-(3-chlorophenyl)-2-hydroxyethyl)carbamoyl)-3-fluorophenyl)pyridin-3-yl)pyrrolidine-2-carboxylate], the pIC50 is 7.98.

As to `Nc1ncc(C2COC2)nc1-c1ccc(C(=O)N[C@H](CO)c2ccccc2)c(F)c1` [Example 224, (S)-4-(3-amino-6-(oxetan-3-yl)pyrazin-2-yl)-2-fluoro-N-(2-hydroxy-1-phenylethyl)benzamide], the pIC50 is 7.73.

Regarding `Cn1nccc1-c1cnc(N)c(-c2ccc(C(=O)N[C@H](CO)c3cccc(F)c3)c(F)c2)c1` [Example 229, (S)-4-(2-amino-5-(1-methyl-1H-pyrazol-5-yl)pyridin-3-yl)-2-fluoro-N-(1-(3-fluorophenyl)-2-hydroxyethyl) benzamide], the pIC50 is 8.97. Compared with the last compound, the pIC50 is 1.24 log units higher.

`Cn1nccc1-c1cnc(N)c(-c2ccc(C(=O)N[C@H](CO)c3cccc(S(C)(=O)=O)c3)c(F)c2)c1` [Example 230, (S)-4-(2-amino-5-(1-methyl-1H-pyrazol-5-yl)pyridin-3-yl)-2-fluoro-N-(2-hydroxy-1-(3-(methylsulfonyl)phenyl)ethyl) benzamide] gave a pIC50 of 9.05.

Regarding `Cc1cccc([C@@H](CO)NC(=O)c2ccc(-c3cc(-c4ccnn4C)cnc3N)cc2F)c1` [Example 231, (S)-4-(2-amino-5-(1-methyl-1H-pyrazol-5-yl)pyridin-3-yl)-2-fluoro-N-(2-hydroxy-1-(m-tolyl)ethyl) benzamide], the pIC50 is 9.66.

In the case of `Cn1nccc1-c1cnc(N)c(-c2ccc(C(=O)N[C@H](CO)c3cc(F)cc(Cl)c3)c(F)c2)c1` [Example 232, (S)-4-(2-amino-5-(1-methyl-1H-pyrazol-5-yl)pyridin-3-yl)-N-(1-(3-chloro-5-fluorophenyl)-2-hydroxyethyl)-2-fluorobenzamide], the pIC50 is 9.59. This pIC50 and that of the compound before are within 0.2 log units of each other.

`Cn1cncc1-c1cnc(N)c(-c2ccc(C(=O)N[C@H](CO)c3cccc(F)c3)c(F)c2)c1` [Example 234, (S)-4-(2-amino-5-(1-methyl-1H-imidazol-5-yl)pyridin-3-yl)-2-fluoro-N-(1-(3-fluorophenyl)-2-hydroxyethyl) benzamide] showed a pIC50 of 8.83.

Turning to `Cn1cncc1-c1cnc(N)c(-c2ccc(C(=O)N[C@H](CO)c3cccc(Cl)c3)c(F)c2)c1` [Example 235, (S)-4-(2-amino-5-(1-methyl-1H-imidazol-5-yl)pyridin-3-yl)-N-(1-(3-chlorophenyl)-2-hydroxyethyl)-2-fluorobenzamide], the pIC50 is 9.49.

In the case of `Cn1cc(-c2cnc(N)c(-c3ccc(C(=O)NCc4cccc(Cl)n4)c(F)c3)c2)cn1` [Example 236, 4-(2-amino-5-(1-methyl-1H-pyrazol-4-yl)pyridin-3-yl)-N-((6-chloropyridin-2-yl)methyl)-2-fluorobenzamide], the pIC50 is 7.25.

In the case of `Cn1cc(CNC(=O)c2ccc(-c3cc(-c4cnn(C)c4)cnc3N)cc2F)cn1` [Example 237, 4-(2-amino-5-(1-methyl-1H-pyrazol-4-yl)pyridin-3-yl)-2-fluoro-N-((1-methyl-1H-pyrazol-4-yl)methyl) benzamide], the pIC50 was 5.58. This pIC50 is 1.67 log units lower than that of the compound before.

The compound `Cn1cc(-c2cnc(N)c(-c3ccc(C(=O)NCc4nccs4)c(F)c3)c2)cn1` [Example 238, 4-(2-amino-5-(1-methyl-1H-pyrazol-4-yl)pyridin-3-yl)-2-fluoro-N-(thiazol-2-ylmethyl) benzamide] gave a pIC50 of 6.45.

`Cn1cc(-c2cnc(N)c(-c3ccc(C(=O)NCc4ccsc4)c(F)c3)c2)cn1` [Example 239, 4-(2-amino-5-(1-methyl-1H-pyrazol-4-yl)pyridin-3-yl)-2-fluoro-N-(thiophen-3-ylmethyl) benzamide]: the pIC50 is 7.55.

Compound `Cn1cc(-c2cnc(N)c(-c3ccc(C(=O)NCc4cccc(C(F)F)c4)c(F)c3)c2)cn1` [Example 245, 4-(2-amino-5-(1-methyl-1H-pyrazol-4-yl)pyridin-3-yl)-N-(3-(difluoromethyl)benzyl)-2-fluorobenzamide] gave a negative logarithm of the IC50 (pIC50) of 8.57.

As for `Cn1cc(-c2cnc(N)c(-c3ccc(C(=O)NCc4cccc(Br)c4)c(F)c3)c2)cn1` [Example 246, 4-(2-amino-5-(1-methyl-1H-pyrazol-4-yl)pyridin-3-yl)-N-(3-bromobenzyl)-2-fluorobenzamide], the pIC50 was 8.82.

The compound `Cc1c(-c2cnc(N)c(-c3ccc(C(=O)N[C@H](CO)c4ccccc4)c(F)c3)n2)cnn1C` [Example 247, (S)-4-(3-amino-6-(1,5-dimethyl-1H-pyrazol-4-yl)pyrazin-2-yl)-2-fluoro-N-(2-hydroxy-1-phenylethyl) benzamide] showed a pIC50 of 9.14.

As for `Nc1ncc(C2CC2)nc1-c1ccc(C(=O)N[C@H](CO)c2ccccc2)c(F)c1` [Example 251, (S)-4-(3-amino-6-cyclo-propylpyrazin-2-yl)-2-fluoro-N-(2-hydroxy-1-phenylethyl) benzamide], the pIC50 was 8.15.

`NC[C@@H](NC(=O)c1ccc(-c2nc(C3CC3)cnc2N)cc1F)c1ccccc1` [Example 252, (S)-N-(2-amino-1-phenylethyl)-4-(3-amino-6-cyclo-propylpyrazin-2-yl)-2-fluorobenzamide] showed a pIC50 of 8.59.

`Nc1ncc(-c2cn[nH]c2)nc1-c1ccc(C(=O)N[C@H](CO)c2ccccc2)c(F)c1` [Example 268, (S)-4-(3-amino-6-(1H-pyrazol-4-yl)pyrazin-2-yl)-2-fluoro-N-(2-hydroxy-1-phenylethyl) benzamide] showed a pIC50 of 8.32.

`Cc1cc(-c2cc(-c3cnn(C)c3)cnc2N)ccc1C(=O)N[C@H](CO)c1ccccc1` [Example 269, (S)-4-(2-amino-5-(1-methyl-1H-pyrazol-4-yl)pyridin-3-yl)-N-(2-hydroxy-1-phenylethyl)-2-methylbenzamide] showed a pIC50 of 8.97.

The compound `Cn1cc(-c2cnc(N)c(-c3ccc(C(=O)N[C@H](CO)c4cccc(F)c4)c(F)c3)n2)cn1` [Example 280, (S)-4-(3-amino-6-(1-methyl-1H-pyrazol-4-yl)pyrazin-2-yl)-2-fluoro-N-(1-(3-fluorophenyl)-2-hydroxyethyl) benzamide] had a negative-log IC50 (pIC50) of 8.78.

The compound `CS(=O)(=O)c1cccc([C@@H](CO)NC(=O)c2ccc(-c3nc(C4CC4)cnc3N)cc2F)c1` [Example 281, (S)-4-(3-amino-6-cyclo-propylpyrazin-2-yl)-2-fluoro-N-(2-hydroxy-1-(3-(methylsulfonyl)phenyl)ethyl) benzamide] had a pIC50 of 8.75.

`Cc1nn(C)cc1-c1cnc(N)c(-c2ccc(C(=O)N[C@H](CO)c3cccc(F)c3)c(F)c2)c1` [Example 282, (S)-4-(2-amino-5-(1,3-dimethyl-1H-pyrazol-4-yl)pyridin-3-yl)-2-fluoro-N-(1-(3-fluorophenyl)-2-hydroxyethyl) benzamide] gave a negative-log IC50 (pIC50) of 8.92.

In turn, `Cc1nn(C)cc1-c1cnc(N)c(-c2ccc(C(=O)N[C@H](CO)c3cccc(S(C)(=O)=O)c3)c(F)c2)c1` [Example 284, (S)-4-(2-amino-5-(1,3-dimethyl-1H-pyrazol-4-yl)pyridin-3-yl)-2-fluoro-N-(2-hydroxy-1-(3-(methylsulfonyl)phenyl)ethyl) benzamide] gave a negative logarithm of the IC50 (pIC50) of 9.53.

For `CS(=O)(=O)c1cc(F)cc(CNC(=O)c2ccc(-c3nc(C4CC4)cnc3N)cc2F)c1` [Example 286, 4-(3-amino-6-cyclo-propylpyrazin-2-yl)-2-fluoro-N-(3-fluoro-5-(methylsulfonyl)benzyl)benzamide], the pIC50 was 8.41.

Compound `C[C@@H](NC(=O)c1ccc(-c2nc(C3CC3)cnc2N)cc1F)c1cc(F)cc(S(C)(=O)=O)c1` [Example 287, (R)-4-(3-amino-6-cyclo-propylpyrazin-2-yl)-2-fluoro-N-(1-(3-fluoro-5-(methylsulfonyl)phenyl)ethyl) benzamide] showed a pIC50 of 9.10.

Consider `C[C@@H](NC(=O)c1ccc(-c2cc(C3CC3)cnc2N)cc1F)c1cc(F)cc(S(C)(=O)=O)c1` [Example 288, (R)-4-(2-amino-5-cyclo-propylpyridin-3-yl)-2-fluoro-N-(1-(3-fluoro-5-(methylsulfonyl)phenyl)ethyl) benzamide], for which the pIC50 was 8.69.

In turn, `Nc1ncc(-c2cn[nH]c2)cc1-c1ccc(C(=O)N[C@H](CO)c2ccccc2)c(F)c1` [Example 290, (S)-4-(2-amino-5-(1H-pyrazol-4-yl)pyridin-3-yl)-2-fluoro-N-(2-hydroxy-1-phenylethyl) benzamide] had a pIC50 of 8.76.

Compound `CC(C)n1cc(-c2cnc(N)c(-c3ccc(C(=O)N[C@H](CO)c4cccc(S(C)(=O)=O)c4)c(F)c3)c2)cn1` [Example 291, (S)-4-(2-amino-5-(1-isopropyl-1H-pyrazol-4-yl)pyridin-3-yl)-2-fluoro-N-(2-hydroxy-1-(3-(methylsulfonyl)phenyl)ethyl) benzamide] showed a pIC50 of 8.83.
